Laboratory results as given in ChEMBL document CHEMBL5608182, “Synthesis and evaluation of neuroactive steroids with novel pharmacophore at C-21 let identify a compound with advantageous PK profile and higher EC50 and Emax as PAM on GABAA receptor” (Eur J Med Chem, 2024).

Columns and labels:
[1] = target: T1, GABA-A receptor; alpha-1/beta-2/gamma-2 (Homo sapiens, UniProt P14867+P18507+P47870); test: Positive allosteric modulation of synaptic alpha1beta2gamma2 GABA-A receptor (unknown origin) transfected in LTK cells assessed as potentiation of GABA-induced peak current amplitude at -80 mV holding potential preincubated for 30 secs followed by GABA stimulation for 2 secs by Q-patch assay; format: cell-based
T1 sequence (P14867 whole entry): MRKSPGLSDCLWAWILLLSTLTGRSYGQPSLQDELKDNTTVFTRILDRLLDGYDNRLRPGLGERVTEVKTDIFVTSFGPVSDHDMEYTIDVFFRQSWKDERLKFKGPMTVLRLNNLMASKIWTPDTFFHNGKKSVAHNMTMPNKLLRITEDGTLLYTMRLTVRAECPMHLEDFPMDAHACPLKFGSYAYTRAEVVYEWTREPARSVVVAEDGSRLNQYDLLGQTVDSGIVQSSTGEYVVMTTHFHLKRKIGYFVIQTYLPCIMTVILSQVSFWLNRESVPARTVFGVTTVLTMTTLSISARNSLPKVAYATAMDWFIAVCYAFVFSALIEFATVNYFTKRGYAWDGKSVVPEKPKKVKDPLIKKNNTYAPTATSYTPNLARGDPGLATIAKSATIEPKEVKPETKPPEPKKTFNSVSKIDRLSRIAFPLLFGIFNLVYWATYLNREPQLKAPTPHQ
T1 sequence (P47870 whole entry): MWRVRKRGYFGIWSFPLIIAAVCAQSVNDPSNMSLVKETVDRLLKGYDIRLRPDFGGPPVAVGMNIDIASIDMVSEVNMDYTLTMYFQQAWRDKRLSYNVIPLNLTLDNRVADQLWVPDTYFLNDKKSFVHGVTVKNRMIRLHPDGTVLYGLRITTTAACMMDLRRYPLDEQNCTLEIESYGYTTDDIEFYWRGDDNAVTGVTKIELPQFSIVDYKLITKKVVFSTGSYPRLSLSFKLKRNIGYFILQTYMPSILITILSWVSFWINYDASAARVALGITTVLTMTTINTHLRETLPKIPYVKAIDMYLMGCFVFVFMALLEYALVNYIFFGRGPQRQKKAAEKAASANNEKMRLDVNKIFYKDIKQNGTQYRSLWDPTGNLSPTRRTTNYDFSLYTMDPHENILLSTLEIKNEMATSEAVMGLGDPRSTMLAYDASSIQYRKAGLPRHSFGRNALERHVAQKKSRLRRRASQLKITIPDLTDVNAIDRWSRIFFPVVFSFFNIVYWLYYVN
T1 sequence (P18507 whole entry): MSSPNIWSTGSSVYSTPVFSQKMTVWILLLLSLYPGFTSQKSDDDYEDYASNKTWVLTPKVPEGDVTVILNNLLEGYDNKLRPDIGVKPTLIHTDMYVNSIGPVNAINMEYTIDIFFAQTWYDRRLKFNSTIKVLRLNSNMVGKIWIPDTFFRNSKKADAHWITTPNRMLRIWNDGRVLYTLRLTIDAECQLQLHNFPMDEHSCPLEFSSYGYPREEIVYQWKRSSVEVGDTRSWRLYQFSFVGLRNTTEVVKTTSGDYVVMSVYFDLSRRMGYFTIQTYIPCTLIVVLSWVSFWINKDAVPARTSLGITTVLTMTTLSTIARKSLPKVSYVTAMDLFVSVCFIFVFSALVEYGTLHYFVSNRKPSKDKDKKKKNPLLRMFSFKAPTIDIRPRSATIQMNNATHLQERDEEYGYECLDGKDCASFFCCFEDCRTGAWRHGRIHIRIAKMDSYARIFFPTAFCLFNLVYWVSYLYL

[2] = Metabolic stability in human liver microsomes assessed as compound remaining at 1 uM preincubated for 10 mins followed by NADPH addition by LC-MS analysis; format: ADME, Microsome; conditions: read-out: Stability
[3] = Cmax in male Sprague-Dawley rat at 24.4 micromol/kg, IG administered as single dose and measured upto 24 hrs by LC-MS/MS analysis; format: ADME; conditions: in vivo, po, dose 24.4 µmol/kg
Rattus norvegicus [4] = test: Antiseizure activity in PTZ-induced male Sprague-Dawley rat acute seizure model assessed as increase in latency to tonic seizures at 12.2 micromol/kg, po pretreated for 1 hr followed by PTZ addition and measured after 60 mins (reference value: 77 +/- 13.4 sec); format: functional; conditions: dose 12.2 µmol/kg, time 120 min, 2 h
Rattus norvegicus [5] = test: Antiseizure activity in PTZ-induced male Sprague-Dawley rat acute seizure model assessed as increase in latency to tonic seizures at 24.4 micromol/kg, po pretreated for 1 hr followed by PTZ addition and measured after 60 mins (reference value: 77 +/- 13.4 sec); format: functional; conditions: dose 24.4 µmol/kg, time 120 min, 2 h
[6] = Toxicity in male Sprague-Dawley rat assessed as loss of righting reflex at 7.8 micromol/kg, ip measured within 4 hrs; format: organism-based; conditions: in vivo, dose 7.8 µmol/kg
[7] = Toxicity in male Sprague-Dawley rat assessed as risk of consciousness loss by measuring time for first loss of righting reflex at 9.8 micromol/kg, ip measured within 4 hrs; format: organism-based; conditions: in vivo, dose 9.8 µmol/kg
[8] = Drug concentration in Sprague-Dawley rat brain at 24.4 micromol/kg, IG measured after 0.5 hrs by LC-MS/MS analysis; format: ADME, tissue-based; conditions: in vivo, po, dose 24.4 µmol/kg
Rattus norvegicus [9] = test: Antiseizure activity in PTZ-induced male Sprague-Dawley rat acute seizure model assessed as increase in latency to tonic seizures at 11.6 micromol/kg, po pretreated for 2 hrs followed by PTZ addition and measured after 60 mins (reference value: 77 +/- 13.4 sec); format: functional; conditions: dose 11.6 µmol/kg, time 180 min, 3 h
Rattus norvegicus [10] = test: Antiseizure activity in PTZ-induced male Sprague-Dawley rat acute seizure model assessed as increase in latency to tonic seizures at 23.2 micromol/kg, po pretreated for 2 hrs followed by PTZ addition and measured after 60 mins (reference value: 77 +/- 13.4 sec); format: functional; conditions: dose 23.2 µmol/kg, time 180 min, 3 h
[11] = Genotoxicity in Salmonella typhimurium TA97 assessed as induction of reverse mutation in absence of rat liver S9 fraction; format: toxicity; conditions: salmonella enterica subsp. enterica serovar typhimurium
[12] = Genotoxicity in Salmonella typhimurium TA98 assessed as induction of reverse mutation in absence of rat liver S9 fraction; format: toxicity; conditions: salmonella enterica subsp. enterica serovar typhimurium
[13] = Genotoxicity in Salmonella typhimurium TA100 assessed as induction of reverse mutation in presence of rat liver S9 fraction; format: toxicity, subcellular; conditions: salmonella enterica subsp. enterica serovar typhimurium
[14] = Genotoxicity in Salmonella typhimurium TA100 assessed as induction of reverse mutation in absence of rat liver S9 fraction; format: toxicity; conditions: salmonella enterica subsp. enterica serovar typhimurium
[15] = Genotoxicity in Salmonella typhimurium TA102 assessed as induction of reverse mutation in absence of rat liver S9 fraction; format: toxicity; conditions: salmonella enterica subsp. enterica serovar typhimurium
[16] = Genotoxicity in Salmonella typhimurium TA1535 assessed as induction of reverse mutation in absence of rat liver S9 fraction; format: toxicity; conditions: salmonella enterica subsp. enterica serovar typhimurium
[17] = Toxicity in male Sprague-Dawley rat assessed as loss of righting reflex at 23.3 micromol/kg, ip measured within 4 hrs; format: organism-based; conditions: in vivo, dose 23.3 µmol/kg
[18] = Toxicity in male Sprague-Dawley rat assessed as risk of consciousness loss by measuring time for first loss of righting reflex at 36.6 micromol/kg, ip measured within 4 hrs; format: organism-based; conditions: in vivo, dose 36.6 µmol/kg
[19] = Ratio of Cmax in IG dosed Sprague-Dawley rat brain to plasma; format: ADME, organism-based; conditions: brain and plasma, po, read-out: BPR

With C[C@@]1(O)CC[C@H]2[C@H](CC[C@@H]3[C@@H]2CC[C@]2(C)[C@@H](C(=O)Cn4cc(C#N)cn4)CC[C@@H]32)C1 [ZURANOLONE] the EC50 [1] was 152 nM, the remaining at 1 µM [2] was 72% and the Cmax [3] was 2290 nM. For the same compound, the Time (Rattus norvegicus [4]) was 1639 s, the Time (Rattus norvegicus [5]) was 2850 s and the Activity [6] was “Non-Toxic”. The Time [7] was 46 min and the Ct [8] was 3103 nmol/kg.

Work on C[C@@]1(O)CC[C@H]2[C@H](CC[C@@H]3[C@@H]2CC[C@]2(C)[C@@H](C(=O)Cn4cnn(-c5cc(F)nc(F)c5)c4=O)CC[C@@H]32)C1 yielded an EC50 [1] of 141 nM, a remaining at 1 µM [2] of 98% and a Cmax [3] of 2530 nM. For the same compound, the Time (Rattus norvegicus [9]) was 2686 s, the Time (Rattus norvegicus [10]) was 3600 s and the Activity [11] was “Non-Toxic”. The Activity [12] was “Non-Toxic”, the Activity [13] was “Non-Toxic” and the Activity [14] was “Non-Toxic”. The Activity [15] was “Non-Toxic”, the Activity [16] was “Non-Toxic” and the Activity [17] was “Non-Toxic”. For the same compound, the Time [18] was 57 min, the Ct [8] was 2320 nmol/kg and the Kp [19] was 1.5.
